From patent US20070010543A1, “Compositions and methods for treating gastrointestinal hypomotility and associated disorders” (Dynogen Pharmaceuticals, Inc., priority 2005, published 2007) come the findings set out here.

For this assay, the system named is guinea-pig distal colon. In words: Fecal pellet propulsion velocity assay, guinea pig ex vivo colon preparation.

Molecules are shown by their SMILES. “And” between values parts separate entries of the source, which are not always exact repeats. Equal entries are not always repeated.

Description: Hartley guinea pigs of either sex (Charles River Laboratories, Wilmington, Mass.) weighing approximately 300 grams were used in all experiments described herein. Segments of distal colon were taken from guinea pigs following euthanasia by isoflurane anesthesia and exsanguination. Colon segments were immediately placed on ice-cold physiological saline solution (PSS, see below for composition).
PSS was made daily and consisted of (in mM) 119 NaCl, 4.7 KCl, 24 NaHCO3, 1.2 KH2PO4, 2.5 CaCl2, 1.2 MgSO4, 11 glucose, and aerated with 95% O2-5% CO2 to obtain pH 7.4. Morphine (Sigma Chemical Company, St. Louis, Mo.), Naltrexone (Sigma Chemical Company, St. Louis, Mo.) or DDP733 (Dynogen Pharmaceuticals, Inc., Waltham, Mass.) were dissolved as stock solutions in distilled water.
Data are reported as means±SEM. Data were analyzed by t-test.
Segments of guinea-pig distal colon (5-8 cms long) were pinned out in an organ bath with pins attached to small pieces of mesentery adhering to the wall of the gut at intervals of approximately 1.5-2 cms. Colonic segments were superfused with oxygenated PSS warmed to about 37° C. An equilibration period was allowed, during which time the gut developed spontaneous tone and emptied its luminal contents. Following the equilibration period, a PE-50 catheter was inserted approximately 1 to 2 cms into the lumen via the anal end of the colon. Oxygenated PSS was perfused intraluminally at a rate of about 0.15 ml/min for a period of 30 minutes. At this point, a dried fecal pellet that had been coated with a synthetic polymer to maintain its structural integrity, was placed into the oral end of the colon, and the intraluminal catheter was advanced to the distal edge of the fecal pellet. The amount of time for the fecal pellet to move about 2 to 3 cms in the aboral direction was measured within the center of the colon segment using a custom computer program and digital video camera. A total of three motility trials were conducted in each experiment under baseline conditions, with a five-minute recovery period between each trial. Motility rates from these first three trials were averaged together to give a measure of baseline motility. After the third baseline trial, a 30-minute inter-trial equilibration period was allowed
At the end of the equilibration period, a fecal pellet was inserted into the oral end of the colon, and motility rate was assessed as before. A total of three motility trials were performed, with a 5-minute recovery period between each trial. Intraluminal infusion of naltrexone or DDP733 was resumed after each trial. Each colon was exposed to only a single concentration of naltrexone or DDP733.
Morphine (0.01 to 10 μM) was added to the superfusate (bath solution) during the inter-trial equilibration period, e.g., 15 minutes prior to the start of motility trials. Morphine remained in the bath solution for the remainder of the experiment. At the end of the equilibration period, a fecal pellet was inserted into the oral end of the colon, and motility rate was assessed as before. A total of three motility trials were performed, with a 5-minute recovery period between each trial. Each colon was exposed to only a single concentration of morphine.
Naltrexone was also infused intraluminally at this point. […] At the end of the equilibration period, a fecal pellet was inserted into the oral end of the colon, and motility rate was assessed as before.

Take `CN1CC[C@]23c4c5ccc(O)c4O[C@H]2[C@@H](O)C=C[C@H]3[C@H]1C5` [Morphine]: under “Morphine 0.10 μM in bath, single preparations”, the Motility % control is 72 % control and 57 % control and 73 % control and 78 % control. In addition, under “in words, summary of Table II”, the effect on motility result is “decrease in motility”.

For the molecule `O=C(N[C@H]1CN2CCC1CC2)c1c[nH]c2ccsc2c1=O` [DDP733, (R)-N-1-azabicyclo[2.2.2]oct-3-yl-4,7-dihydro-7-oxothieno[3,2-b]pyridine-6-carboxamide], the “effect on morphine-induced decrease in motility” value (in words, summary of Table II) is “diminished”.
